Experimental data reported in a compilation of properties of binary mixtures (doi:10.1021/acs.jced.1c00924).

Experiment: xn = mol fraction of the nth substance listed
Conditions: 100 kPa

Q: Which results are given for `CCOP(=O)([O-])OCC.CC[n+]1ccn(C)c1` + CCO?
A: viscosity (293.15 K, x1 = 0.1002): 3.82 mPa·s; viscosity (293.15 K, x1 = 0.1992): 8.71 mPa·s; viscosity (293.15 K, x1 = 0.2987): 18.6 mPa·s; viscosity (293.15 K, x1 = 0.4007): 35.9 mPa·s; viscosity (293.15 K, x1 = 0.5007): 65.5 mPa·s; viscosity (293.15 K, x1 = 0.5993): 106.8 mPa·s; viscosity (293.15 K, x1 = 0.8): 256 mPa·s; viscosity (298.15 K, x1 = 0.1002): 3.46 mPa·s; viscosity (298.15 K, x1 = 0.1992): 7.58 mPa·s; viscosity (298.15 K, x1 = 0.2987): 15.84 mPa·s; viscosity (298.15 K, x1 = 0.5007): 52 mPa·s; viscosity (298.15 K, x1 = 0.5993): 83 mPa·s; viscosity (298.15 K, x1 = 0.8): 187 mPa·s; viscosity (298.15 K, x1 = 0.8985): 271 mPa·s; viscosity (298.15 K, x1 = 1): 397 mPa·s; viscosity (303.15 K, x1 = 0.1002): 3.1 mPa·s; viscosity (303.15 K, x1 = 0.1992): 6.67 mPa·s; viscosity (303.15 K, x1 = 0.2987): 13.57 mPa·s; viscosity (303.15 K, x1 = 0.5007): 41.8 mPa·s; viscosity (303.15 K, x1 = 0.5993): 64.6 mPa·s; viscosity (303.15 K, x1 = 0.7003): 102.1 mPa·s; viscosity (303.15 K, x1 = 1): 285 mPa·s; viscosity (308.15 K, x1 = 0.1002): 2.8 mPa·s; viscosity (308.15 K, x1 = 0.1992): 5.96 mPa·s; viscosity (308.15 K, x1 = 0.2987): 11.74 mPa·s; viscosity (308.15 K, x1 = 0.4007): 20.9 mPa·s; viscosity (308.15 K, x1 = 0.5007): 34.4 mPa·s; viscosity (308.15 K, x1 = 0.5993): 51.6 mPa·s; viscosity (308.15 K, x1 = 0.8): 107.6 mPa·s; viscosity (308.15 K, x1 = 0.8985): 146.8 mPa·s; viscosity (308.15 K, x1 = 1): 209 mPa·s; viscosity (313.15 K, x1 = 0.1002): 2.58 mPa·s; viscosity (313.15 K, x1 = 0.1992): 5.38 mPa·s; viscosity (313.15 K, x1 = 0.2987): 10.35 mPa·s; viscosity (313.15 K, x1 = 0.4007): 18 mPa·s; viscosity (313.15 K, x1 = 0.5007): 28.6 mPa·s; viscosity (313.15 K, x1 = 0.5993): 41.6 mPa·s; viscosity (313.15 K, x1 = 0.7003): 63.3 mPa·s; viscosity (313.15 K, x1 = 0.8): 82.5 mPa·s; viscosity (313.15 K, x1 = 0.8985): 112.5 mPa·s; viscosity (318.15 K, x1 = 0.1002): 2.39 mPa·s; viscosity (318.15 K, x1 = 0.1992): 4.92 mPa·s; viscosity (318.15 K, x1 = 0.2987): 9.23 mPa·s; viscosity (318.15 K, x1 = 0.4007): 15.6 mPa·s; viscosity (318.15 K, x1 = 0.5007): 24 mPa·s; viscosity (318.15 K, x1 = 0.5993): 34.2 mPa·s; viscosity (318.15 K, x1 = 0.7003): 50.3 mPa·s; viscosity (318.15 K, x1 = 0.8): 65.4 mPa·s; viscosity (318.15 K, x1 = 1): 117.2 mPa·s; viscosity (323.15 K, x1 = 0.1002): 2.28 mPa·s; viscosity (323.15 K, x1 = 0.1992): 4.57 mPa·s; viscosity (323.15 K, x1 = 0.2987): 8.34 mPa·s; viscosity (323.15 K, x1 = 0.4007): 13.64 mPa·s; viscosity (323.15 K, x1 = 0.5007): 20.8 mPa·s; viscosity (323.15 K, x1 = 0.5993): 28.8 mPa·s; viscosity (323.15 K, x1 = 0.8): 52.6 mPa·s; viscosity (323.15 K, x1 = 0.8985): 68.7 mPa·s; viscosity (323.15 K, x1 = 1): 91.7 mPa·s; viscosity (328.15 K, x1 = 0.2987): 7.65 mPa·s; viscosity (328.15 K, x1 = 0.4007): 12.11 mPa·s; viscosity (328.15 K, x1 = 0.5007): 18.1 mPa·s; viscosity (328.15 K, x1 = 0.7003): 33.5 mPa·s; viscosity (328.15 K, x1 = 0.8): 42.7 mPa·s; viscosity (328.15 K, x1 = 0.8985): 54.6 mPa·s; viscosity (328.15 K, x1 = 1): 71.2 mPa·s; viscosity (333.15 K, x1 = 0.1002): 2.05 mPa·s; viscosity (333.15 K, x1 = 0.1992): 4.06 mPa·s; viscosity (333.15 K, x1 = 0.2987): 7 mPa·s; viscosity (333.15 K, x1 = 0.5007): 15.82 mPa·s; viscosity (333.15 K, x1 = 0.5993): 20.8 mPa·s; viscosity (333.15 K, x1 = 0.7003): 28.1 mPa·s; viscosity (333.15 K, x1 = 0.8): 35 mPa·s; viscosity (333.15 K, x1 = 0.8985): 44.5 mPa·s; viscosity (333.15 K, x1 = 1): 57.3 mPa·s; viscosity (338.15 K, x1 = 0.1002): 1.94 mPa·s; viscosity (338.15 K, x1 = 0.1992): 3.86 mPa·s; viscosity (338.15 K, x1 = 0.2987): 6.48 mPa·s; viscosity (338.15 K, x1 = 0.4007): 9.9 mPa·s; viscosity (338.15 K, x1 = 0.5007): 13.95 mPa·s; viscosity (338.15 K, x1 = 0.5993): 18.1 mPa·s; viscosity (338.15 K, x1 = 0.8): 29.3 mPa·s; viscosity (338.15 K, x1 = 0.8985): 36.5 mPa·s; viscosity (338.15 K, x1 = 1): 46.2 mPa·s

Q: Which results are given for `CCO` + CCOP(=O)([O-])OCC.CC[n+]1ccn(C)c1?
A: viscosity (293.15 K, x2 = 0): 1.18 mPa·s; viscosity (298.15 K, x2 = 0): 1.11 mPa·s; viscosity (303.15 K, x2 = 0): 0.98 mPa·s; viscosity (308.15 K, x2 = 0): 0.89 mPa·s; viscosity (313.15 K, x2 = 0): 0.82 mPa·s; viscosity (323.15 K, x2 = 0): 0.69 mPa·s; viscosity (328.15 K, x2 = 0): 0.65 mPa·s; viscosity (333.15 K, x2 = 0): 0.6 mPa·s; viscosity (338.15 K, x2 = 0): 0.56 mPa·s
